# Laboratory results: US6897228B2, “Pyridoxine and pyridoxal analogues: new uses” (Medicure International Inc., priority 2000, dated 2005)
# Marks after values point to notes of the source that are not given here.
# System: Male Wistar rats, embolic focal cerebral ischemia (MCA)
# Assay: Neuroprotection in rat embolic stroke model
# Assay type: in vivo
# Details: for infarction volume: 48 h, mean±SEM; for Hemorrhage rate / Mortality rate (pre-mature death) / Seizure occurrence: n=10; for Neurological deficits (modified Bederson score): median (25-75th percentile)
# Text: Male Wistar rats, weighting 300-350 g, were purchased from Charles River, St. Constant, Canada. Embolic focal cerebral ischemia was induced by embolizing a preformed clot into the middle cerebral artery (MCA). (For details of the procedure see Wang C X, Yang Y, Shuaib A. A focal embolic model of cerebral ischemia in rats. Brain Res. Protoc. 7:115-120, 2001. Wang C, Yang T and Shuaib A: An improved version of embolic model of brain ischemic injury in the rat. J. Neurosci. Meth. 109:147-151, 2001).
# The study consisted of four groups (n=10). Animals were randomly assigned to one of the four groups. Treatments were started at 1 h after MCA occlusion. […] In the control group, 0.5% DMSO (1.5 ml) was infused.
# The procedure for assessment of infarct volume were detailed previously (Bederson J B, Pitts L H, Tsuji M, Nishimura M C, Davis R L, Bartkowski H. Rat middle cerebral artery occlusion: evaluation of the model and development of a neurologic examination. Stroke 17:472-476, 1986. Yang, Y., Shuaib, A., and Li, Q. Quantification of infarct size on focal cerebral ischemia model of rats using a simple and economical method. J. Neurosci. Meth., 84:9-16, 1998). Briefly, at 48 h after ischemia the anesthetized animal was sacrificed by decapitation and the brain removed. The volume of infarction was measured in the brain sections stained with 2,3,5-triphenyltetrazolium chloride (TTC) solution with following formula, corrected infarct size=the volume of the left hemisphere−(the volume of the right hemisphere-measured infarct volume). The percentage of infarct volume was obtained by calculating the portion of the corrected infarct volume and dividing it by the total volume of the left hemisphere. Brain swelling was determined using a formula: swelling (edema)=(volume of the right hemisphere[…])/volume of the left hemisphere. Hemorrhage transformation was identified from the TTC stain brain sections.
# Neurological deficits and seizure activities were recorded at 2, 24 and 48 hours after embolization. Neurological deficits were determined using a modified Bederson's scoring system (Bederson J B, Pitts L H, Tsuji M, Nishimura M C, Davis R L, Bartkowski H. Rat middle cerebral artery occlusion: evaluation of the model and development of a neurologic examination. Stroke (17:472-476, 1986). 0: no observable deficit; 1: forelimb flexion; 2: forelimb flexion plus decreased resistance to lateral push; 3: unidirectional circling; 4: unidirectional circling plus decreased level of consciousness. Seizure activity, hemorrhage and mortality were also recorded. […]. Results are shown in Table 25-1
# The differences of infarction volume were analyzed with one way ANOVA followed by Dunnett's test. Neurological deficit scores were reported as medians and interquartile ranges, considering 25-75th percentile. The neurological scores were analyzed with Kruskal-Wallis test when more than two groups, and analyzed with Mann-Whitney test when comparison was done in two groups. The rates of mortality and seizure occurrence following different treatments were compared with Chi-square test. Differences were considered significant when p<0.05.
structure (smiles),measurement,setting,value
Cc1ncc(CNc2ccc(-c3ccc(C(=N)N)cc3)cc2)c(CO)c1O [Compound XL],infarction volume,"10 mg/kg at 1 h after embolization, control 40±2.6%",30.5±4.8%
same,Hemorrhage rate,"10 mg/kg group, control 1 rat",2 rats
same,Mortality rate (pre-mature death),"10 mg/kg group, control 1 rat",1
same,Seizure occurrence,"10 mg/kg group, control 2 rats",3 rats
same,Ischemic brain edema,"10 mg/kg, control 5.7±1.3",6.8±1.9
same,Neurological deficits (modified Bederson score),"10 mg, 2 h after injury",3 (3-3)
same,Neurological deficits (modified Bederson score),"10 mg, 24 h after injury",2 (2-3)*
same,Neurological deficits (modified Bederson score),"10 mg, 48 h after injury",2 (2-3)*
same,Ischemic brain edema,20 mg/kg,5.9±1.3
same,infarction volume,20 mg/kg at 1 h after embolization,26.5±4.4%
same,Hemorrhage rate,20 mg/kg group,1 rat
same,Mortality rate (pre-mature death),20 mg/kg group,1
same,Seizure occurrence,20 mg/kg group,2 rats
same,Neurological deficits (modified Bederson score),"20 mg, 2 h after injury",3 (3-3)
same,Neurological deficits (modified Bederson score),"20 mg, 24 h after injury",2 (2-3)*
same,Neurological deficits (modified Bederson score),"20 mg, 48 h after injury",2 (2-3)*
same,Ischemic brain edema,40 mg/kg,7.9±2.1
same,infarction volume,40 mg/kg at 1 h after embolization,25.9±3.4%
same,Hemorrhage rate,40 mg/kg group,2 rats
same,Seizure occurrence,40 mg/kg group,2 rats
same,Neurological deficits (modified Bederson score),"40 mg, 2 h after injury",3 (3-3)
same,Neurological deficits (modified Bederson score),"40 mg, 24 h after injury",2 (2-3)*
same,Neurological deficits (modified Bederson score),"40 mg, 48 h after injury",2.5 (2-2)*
